The values that follow are results of earlier work, collected in patent US20140120162A1, “Bioadhesive Drug Delivery Compositions” (PEROSPHERE INC., priority 2011, published 2014).

Read-outs that look alike come from different tables or passages of the source. A value given as a limit tells only on which side of the number the result lay.

Test in data set [1]: not given
This is another data set of the same source.

Test in data set [2]: not given
The source holds these as a separate data set.

The bioavailability is the share of a dose that reaches the circulation, judged against a reference dose that is usually intravenous. Consider “1-[(4R,5S)-5-[(2-aminoethyl)amino]-N^2-(10,12-dimethyl-1-oxotetradecyl)-4-hydroxy-L-ornithine]-5-[(3IRI)-3-hydroxy-L-ornithine]pneumocandin B0 diacetate (salt) [Caspofungin acetate]”, for which the bioavailability (caspofungin) was 0%. In data set [1], the “solubility in ethanol / alcohol” value is listed as “slightly soluble”, the solubility in methanol entry was “freely soluble” and the solubility in water entry is given as “freely soluble”. Also, the “pH of a saturated aqueous solution” value in data set [2] is “approximately 6.6”.

Take `NC(=O)N1c2ccccc2C=Cc2ccccc21` [Carbamazepine, 5H-dibenz[b,f]azepine-5-carboxamide]: the solubility in acetone result in data set [1] (acetone) was “soluble”. In data set [1], the “solubility in ethanol / alcohol” value is “soluble” and the solubility in water entry was “practically insoluble”.

For orientation: half-life means the time in which the quantity being followed falls by half. As for `C#C[C@]1(O)CC[C@H]2[C@@H]3CCC4=Cc5oncc5C[C@]4(C)[C@H]3CC[C@@]21C` [Danazol, 17a-Pregna-2,4-dien-20-yno[2,3-d]-isoxazol-17-ol], for the setting “danazol administered orally”, the half-life was 4 to 5 h and the “time of peak concentrations” value is ≤ 2 h. Moreover, the “increase in plasma concentration on doubling the dose” value (danazol, doubling the dose) is recorded as 30-40%.

Take `NCC1(CC(=O)O)CCCCC1` [Gabapentin]: the bioavailability (gabapentin, at best, 900 mg dose given three times a day) is ≤ 60%. Further, the metabolism in humans entry (humans) is “not appreciably metabolized”.

In the case of `CC(=O)O[C@H]1C(=O)[C@@]2(C)[C@H]([C@H](OC(=O)c3ccccc3)[C@]3(O)C[C@H](OC(=O)[C@H](O)[C@@H](NC(=O)c4ccccc4)c4ccccc4)C(C)=C1C3(C)C)[C@]1(OC(C)=O)CO[C@@H]1C[C@@H]2O` [Paclitaxel], the solubility in water entry in data set [1] is “insoluble”.

On to `C=CC[C@@H]1/C=C(\C)C[C@H](C)C[C@H](OC)[C@H]2O[C@@](O)(C(=O)C(=O)N3CCCC[C@H]3C(=O)O[C@H](/C(C)=C/[C@@H]3CC[C@@H](O)[C@H](OC)C3)[C@H](C)[C@@H](O)CC1=O)[C@H](C)C[C@@H]2OC` [Tacrolimus], for which the absolute bioavailability entry (tacrolimus, 5 mg dose taken twice a day, oral) is recorded as “approximately 17%”. In addition, in data set [1] (chloroform), the solubility in chloroform result is listed as “very soluble”. Besides, in data set [1], the “solubility in ethanol / alcohol” value is reported as “freely soluble”, the solubility in methanol entry is “very soluble” and the solubility in water entry is reported as “practically insoluble”.
